According to patent US20260262643A1, “HERBICIDAL BENZOXAZINES” (FMC CORPORATION, priority 2022, published 2026):

Legend:
foxtail, giant [1] = test: Test A postemergence; format: in vivo, Setaria faberi; settings: postemergence, 10 days; for Foxtail, Giant plant response rating: 125 g ai/ha, 0 to 100 scale, 0 no effect, 100 complete control; for Plant response rating, Foxtail, Giant: 500 g ai/ha, visual injury, 0 to 100 scale (0 no effect, 100 complete control)
Outline: (§1)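 Loam/sand soil; pre-em directed soil spray at planting, post-em spray at 1–2 leaf (2–10 cm). Compound in non-phytotoxic solvent + surfactant. Greenhouse 10 d; visual injury vs untreated, 0 = no effect, 100 = complete control.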

goosegrass [2] = test: Test A postemergence; format: in vivo, Eleusine indica; settings: postemergence, 10 days; for Goosegrass plant response rating: 125 g ai/ha, 0 to 100 scale, 0 no effect, 100 complete control; for Plant response rating, Goosegrass: 500 g ai/ha, visual injury, 0 to 100 scale (0 no effect, 100 complete control)
Outline: as §1

barnyardgrass = test: Test B flooded paddy test; format: in vivo, Echinochloa crus-galli; settings: 250 g ai/ha, Flood, 13 days, 0 to 100 scale (0 no effect, 100 complete control)
Outline: (§2)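 Plants at the 2-leaf stage were flooded to 3 cm above the soil, and test compounds were applied directly into the paddy water, with that depth held throughout. After 13 days in a greenhouse, injury was rated visually against untreated controls on a 0–100 scale (100 = complete control).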

kochia [3] = test: Test A preemergence; format: in vivo, Bassia scoparia
Outline: as §1

ducksalad = test: Test B flooded paddy test; format: in vivo, Heteranthera limosa; settings: 250 g ai/ha, Flood, 13 days, 0 to 100 scale (0 no effect, 100 complete control)
Outline: as §2

corn [4] = test: Test A preemergence; format: in vivo, Zea mays
Outline: as §1

horseweed = test: Test A postemergence; format: in vivo, Erigeron canadensis; settings: postemergence, 10 days; for Horseweed plant response rating: 125 g ai/ha, 0 to 100 scale, 0 no effect, 100 complete control; for Plant response rating, Horseweed: 500 g ai/ha, visual injury, 0 to 100 scale (0 no effect, 100 complete control)
Outline: as §1

foxtail, giant [5] = test: Test A preemergence; format: in vivo, Setaria faberi
Outline: as §1

kochia [6] = test: Test A postemergence; format: in vivo, Bassia scoparia; settings: postemergence, 10 days; for Kochia plant response rating: 125 g ai/ha, 0 to 100 scale, 0 no effect, 100 complete control; for Plant response rating, Kochia: 500 g ai/ha, visual injury, 0 to 100 scale (0 no effect, 100 complete control)
Outline: as §1

blackgrass [7] = test: Test A preemergence; format: in vivo, Alopecurus myosuroides
Outline: as §1

wheat [8] = test: Test A postemergence; format: in vivo, Triticum aestivum; settings: postemergence, 10 days; for Wheat plant response rating: 125 g ai/ha, 0 to 100 scale, 0 no effect, 100 complete control; for Plant response rating, Wheat: 500 g ai/ha, visual injury, 0 to 100 scale (0 no effect, 100 complete control)
Outline: as §1

blackgrass [9] = test: Test A postemergence; format: in vivo, Alopecurus myosuroides; settings: postemergence, 10 days; for Blackgrass plant response rating: 125 g ai/ha, 0 to 100 scale, 0 no effect, 100 complete control; for Plant response rating, Blackgrass: 500 g ai/ha, visual injury, 0 to 100 scale (0 no effect, 100 complete control)
Outline: as §1

wheat [10] = test: Test A preemergence; format: in vivo, Triticum aestivum
Outline: as §1

sedge, umbrella = test: Test B flooded paddy test; format: in vivo, Cyperus difformis; settings: 250 g ai/ha, Flood, 13 days, 0 to 100 scale (0 no effect, 100 complete control)
Outline: as §2

ragweed [11] = test: Test A preemergence; format: in vivo, Ambrosia artemisiifolia
Outline: as §1

goosegrass [12] = test: Test A preemergence; format: in vivo, Eleusine indica
Outline: as §1

rice = test: Test B flooded paddy test; format: in vivo, Oryza sativa; settings: 250 g ai/ha, Flood, 13 days, 0 to 100 scale (0 no effect, 100 complete control)
Outline: as §2

corn [13] = test: Test A postemergence; format: in vivo, Zea mays; settings: postemergence, 10 days; for Corn plant response rating: 125 g ai/ha, 0 to 100 scale, 0 no effect, 100 complete control; for Plant response rating, Corn: 500 g ai/ha, visual injury, 0 to 100 scale (0 no effect, 100 complete control)
Outline: as §1

oat, wild [14] = test: Test A postemergence; format: in vivo, Avena fatua; settings: postemergence, 10 days; for Oat, Wild plant response rating: 125 g ai/ha, 0 to 100 scale, 0 no effect, 100 complete control; for Plant response rating, Oat, Wild: 500 g ai/ha, visual injury, 0 to 100 scale (0 no effect, 100 complete control)
Outline: as §1

soybean [15] = test: Test A postemergence; format: in vivo, Glycine max; settings: postemergence, 10 days; for Soybean plant response rating: 125 g ai/ha, 0 to 100 scale, 0 no effect, 100 complete control; for Plant response rating, Soybean: 500 g ai/ha, visual injury, 0 to 100 scale (0 no effect, 100 complete control)
Outline: as §1

pigweed, palmer [16] = test: Test A postemergence; format: in vivo, Amaranthus palmeri; settings: postemergence, 10 days; for Pigweed, Palmer plant response rating: 125 g ai/ha, 0 to 100 scale, 0 no effect, 100 complete control; for Plant response rating, Pigweed, Palmer: 500 g ai/ha, visual injury, 0 to 100 scale (0 no effect, 100 complete control)
Outline: as §1

pigweed, palmer [17] = test: Test A preemergence; format: in vivo, Amaranthus palmeri
Outline: as §1

ragweed [18] = test: Test A postemergence; format: in vivo, Ambrosia artemisiifolia; settings: postemergence, 10 days; for Ragweed plant response rating: 125 g ai/ha, 0 to 100 scale, 0 no effect, 100 complete control; for Plant response rating, Ragweed: 500 g ai/ha, visual injury, 0 to 100 scale (0 no effect, 100 complete control)
Outline: as §1

soybean [19] = test: Test A preemergence; format: in vivo, Glycine max
Outline: as §1

ryegrass, Italian [20] = test: Test A preemergence; format: in vivo, Lolium multiflorum
Outline: as §1

ryegrass, Italian [21] = test: Test A postemergence; format: in vivo, Lolium multiflorum; settings: postemergence, 10 days; for Ryegrass, Italian plant response rating: 125 g ai/ha, 0 to 100 scale, 0 no effect, 100 complete control; for Plant response rating, Ryegrass, Italian: 500 g ai/ha, visual injury, 0 to 100 scale (0 no effect, 100 complete control)
Outline: as §1

oat, wild [22] = test: Test A preemergence; format: in vivo, Avena fatua
Outline: as §1

[23] = 125 g ai/ha, visual injury after 10 days, 0 to 100 scale, 0 is no effect, 100 is complete control
[24] = 500 g ai/ha, 0 to 100 scale (0 no effect, 100 complete control), 10 days

COc1ccc(-n2cnc(C(C)(C)C)n2)cc1C(=O)N1C[C@H](C)Oc2c(Cl)cccc21 [Compound 83]
Foxtail, Giant plant response rating (foxtail, giant [1]): 20
Plant response rating, Foxtail, Giant (foxtail, giant [1]): 90
Goosegrass plant response rating (goosegrass [2]): 70
Plant response rating, Goosegrass (goosegrass [2]): 100
Plant response rating, Barnyardgrass (barnyardgrass): 40
Plant response rating, Kochia (kochia [3]; [23]): 90
Plant response rating, Kochia (kochia [3]; [24]): 100
Plant response rating, Ducksalad (ducksalad): 30
Plant response rating, Corn (corn [4]; [23]): 0
Plant response rating, Corn (corn [4]; [24]): 20
Horseweed plant response rating (horseweed): 40
Plant response rating, Horseweed (horseweed): 40
Plant response rating, Foxtail, Giant (foxtail, giant [5]; [23]): 100
Plant response rating, Foxtail, Giant (foxtail, giant [5]; [24]): 100
Kochia plant response rating (kochia [6]): 100
Plant response rating, Kochia (kochia [6]): 100
Plant response rating, Blackgrass (blackgrass [7]; [23]): 40
Plant response rating, Blackgrass (blackgrass [7]; [24]): 50
Wheat plant response rating (wheat [8]): 10
Plant response rating, Wheat (wheat [8]): 40
Blackgrass plant response rating (blackgrass [9]): 10
Plant response rating, Blackgrass (blackgrass [9]): 60
Plant response rating, Wheat (wheat [10]; [23]): 10
Plant response rating, Wheat (wheat [10]; [24]): 90
Plant response rating, Sedge, Umbrella (sedge, umbrella): 100
Plant response rating, Ragweed (ragweed [11]; [23]): 50
Plant response rating, Ragweed (ragweed [11]; [24]): 90
Plant response rating, Goosegrass (goosegrass [12]; [23]): 100
Plant response rating, Goosegrass (goosegrass [12]; [24]): 100
Plant response rating, Rice (rice): 0
Corn plant response rating (corn [13]): 30
Plant response rating, Corn (corn [13]): 50
Oat, Wild plant response rating (oat, wild [14]): 20
Plant response rating, Oat, Wild (oat, wild [14]): 70
Soybean plant response rating (soybean [15]): 100
Plant response rating, Soybean (soybean [15]): 100
Pigweed, Palmer plant response rating (pigweed, palmer [16]): 100
Plant response rating, Pigweed, Palmer (pigweed, palmer [16]): 90
Plant response rating, Pigweed, Palmer (pigweed, palmer [17]; [23]): 100
Plant response rating, Pigweed, Palmer (pigweed, palmer [17]; [24]): 100
Ragweed plant response rating (ragweed [18]): 70
Plant response rating, Ragweed (ragweed [18]): 100
Plant response rating, Soybean (soybean [19]; [23]): 50
Plant response rating, Soybean (soybean [19]; [24]): 100
Plant response rating, Ryegrass, Italian (ryegrass, Italian [20]; [23]): 100
Plant response rating, Ryegrass, Italian (ryegrass, Italian [20]; [24]): 100
Ryegrass, Italian plant response rating (ryegrass, Italian [21]): 40
Plant response rating, Ryegrass, Italian (ryegrass, Italian [21]): 100
Plant response rating, Oat, Wild (oat, wild [22]; [23]): 90
Plant response rating, Oat, Wild (oat, wild [22]; [24]): 90

C[C@H]1CN(C(=O)c2cc(Cl)cc(-n3cncn3)c2)c2cccc(Cl)c2O1 [Compound 81]
Foxtail, Giant plant response rating (foxtail, giant [1]): 20
Plant response rating, Foxtail, Giant (foxtail, giant [1]): 90
Goosegrass plant response rating (goosegrass [2]): 10
Plant response rating, Goosegrass (goosegrass [2]): 30
Plant response rating, Barnyardgrass (barnyardgrass): 0
Plant response rating, Kochia (kochia [3]; [23]): 0
Plant response rating, Kochia (kochia [3]; [24]): 30
Plant response rating, Ducksalad (ducksalad): 0
Plant response rating, Corn (corn [4]; [23]): 0
Plant response rating, Corn (corn [4]; [24]): 0
Horseweed plant response rating (horseweed): 0
Plant response rating, Horseweed (horseweed): 0
Plant response rating, Foxtail, Giant (foxtail, giant [5]; [23]): 20
Plant response rating, Foxtail, Giant (foxtail, giant [5]; [24]): 90
Kochia plant response rating (kochia [6]): 50
Plant response rating, Kochia (kochia [6]): 90
Plant response rating, Blackgrass (blackgrass [7]; [23]): 30
Plant response rating, Blackgrass (blackgrass [7]; [24]): 60
Wheat plant response rating (wheat [8]): 10
Plant response rating, Wheat (wheat [8]): 20
Blackgrass plant response rating (blackgrass [9]): 0
Plant response rating, Blackgrass (blackgrass [9]): 60
Plant response rating, Wheat (wheat [10]; [23]): 10
Plant response rating, Wheat (wheat [10]; [24]): 10
Plant response rating, Sedge, Umbrella (sedge, umbrella): 0
Plant response rating, Ragweed (ragweed [11]; [23]): 0
Plant response rating, Ragweed (ragweed [11]; [24]): 0
Plant response rating, Goosegrass (goosegrass [12]; [23]): 70
Plant response rating, Goosegrass (goosegrass [12]; [24]): 90
Plant response rating, Rice (rice): 0
Corn plant response rating (corn [13]): 0
Plant response rating, Corn (corn [13]): 50
Oat, Wild plant response rating (oat, wild [14]): 10
Plant response rating, Oat, Wild (oat, wild [14]): 20
Soybean plant response rating (soybean [15]): 100
Plant response rating, Soybean (soybean [15]): 100
Pigweed, Palmer plant response rating (pigweed, palmer [16]): 60
Plant response rating, Pigweed, Palmer (pigweed, palmer [16]): 90
Plant response rating, Pigweed, Palmer (pigweed, palmer [17]; [23]): 30
Plant response rating, Pigweed, Palmer (pigweed, palmer [17]; [24]): 80
Ragweed plant response rating (ragweed [18]): 20
Plant response rating, Ragweed (ragweed [18]): 20
Plant response rating, Soybean (soybean [19]; [23]): 0
Plant response rating, Soybean (soybean [19]; [24]): 0
Plant response rating, Ryegrass, Italian (ryegrass, Italian [20]; [23]): 50
Plant response rating, Ryegrass, Italian (ryegrass, Italian [20]; [24]): 80
Ryegrass, Italian plant response rating (ryegrass, Italian [21]): 30
Plant response rating, Ryegrass, Italian (ryegrass, Italian [21]): 100
Plant response rating, Oat, Wild (oat, wild [22]; [23]): 50
Plant response rating, Oat, Wild (oat, wild [22]; [24]): 80
